Here are results for 78 molecules from ChEMBL document CHEMBL4680202, “Development, synthesis and biological investigation of a novel class of potent PC-PLC inhibitors” (Eur J Med Chem, 2020).

The test relates to Bacillus cereus. Put plainly: Inhibition of Bacillus cereus PC-PLC assessed as residual activity at 10 uM using phosphatidylcholine as substrate measured after 1 hr by horseradish peroxidase/alkaline phosphatase/choline oxidase-coupled amplex red reagent based fluorescence assay relative to control.

`Cc1cccc(CNc2ccc(N3CCOCC3)c(C(=O)O)c2)c1`: the Activity worked out at 23.7%.

On to `CC(C)(C)OC(=O)N1CCN(c2ccc(NCc3ccccc3)cc2)CC1`, for which the Activity amounted to 42.3%.

Consider `COC(=O)c1cc(NCc2ccc(F)cc2)ccc1N1CCOCC1`, for which the Activity is 48.9%.

For `Clc1ccc(CNc2ccc(N3CCNCC3)cc2)cc1`, the Activity was determined as 31.3%.

With `CN1CCN(c2ccc(NCc3ccccc3C(F)(F)F)cc2)CC1`, the Activity was 25.4%.

`COC(=O)c1cc(NCc2cccc(O)c2)ccc1N1CCOCC1`: the Activity stood at 52.8%.

Turning to `COc1ccccc1CNc1ccc(N2CCOCC2)c(C(=O)O)c1`, the Activity is 32.5%.

Regarding `Oc1ccccc1CNc1ccc(N2CCOCC2)cc1`, the Activity was determined as 0%.

Turning to `O=C(O)c1cc(NCc2ccc(Br)cc2)ccc1N1CCOCC1`, the Activity was found to be 28.7%.

Consider `Clc1ccccc1CNc1ccc(N2CCNCC2)cc1`, for which the Activity is 31%.

Take `FC(F)(F)c1ccccc1CNc1ccc(N2CCNCC2)cc1`: the Activity was found to be 30.4%.

With `COc1cccc(CNc2ccc(N3CCOCC3)c(C(=O)O)c2)c1`, the Activity was 28.1%.

For the molecule `Brc1ccccc1CNc1ccc(N2CCNCC2)cc1`, the Activity turned out to be 26.8%.

Take `CC(C)(C)OC(=O)N1CCN(c2ccc(NCc3cccc(F)c3)cc2)CC1`: the Activity was 33.5%.

As for `O=C(O)c1cc(NCc2cccc(Br)c2)ccc1N1CCOCC1`, the Activity came to 20.4%.

As for `CN1CCN(c2ccc(NCc3ccccc3O)cc2)CC1`, the Activity amounted to 13.4%.

Consider `O=C(O)c1cc(NCc2cccc(F)c2)ccc1N1CCOCC1`, for which the Activity amounted to 49.5%.

In the case of `COC(=O)c1cc(NCc2cccc(Cl)c2)ccc1N1CCOCC1`, the Activity was 65.6%.

As for `CC(C)(C)OC(=O)N1CCN(c2ccc(NCc3ccc(Cl)cc3)cc2)CC1`, the Activity is 53.3%.

`COc1ccc(CNc2ccc(N3CCOCC3)cc2)cc1`: the Activity came out at 3.2%.

Take `CC(C)(C)OC(=O)N1CCN(c2ccc(NCc3ccc(O)cc3)cc2)CC1`: the Activity was 23.9%.

Regarding `COC(=O)c1cc(NCc2cccc(Br)c2)ccc1N1CCOCC1`, the Activity is 60.9%.

On to `O=C(O)c1cc(NCc2cccc(Oc3ccccc3)c2)ccc1N1CCOCC1`, for which the Activity was found to be 47.5%.

Take `CC(C)(C)OC(=O)N1CCN(c2ccc(NCc3cccc(O)c3)cc2)CC1`: the Activity amounted to 18.4%.

With `O=C(O)c1cc(NCc2cccc(C(F)(F)F)c2)ccc1N1CCOCC1`, the Activity was 44.6%.

Regarding `O=C(O)c1cc(NCc2ccccc2Br)ccc1N1CCOCC1`, the Activity amounted to 40.4%.

Regarding `COC(=O)c1cc(NCc2ccccc2OC)ccc1N1CCOCC1`, the Activity came out at 43.7%.

With `Cc1ccccc1CNc1ccc(N2CCN(C)CC2)cc1`, the Activity was 40.9%.

Turning to `COC(=O)c1cc(NCc2cccc(C(F)(F)F)c2)ccc1N1CCOCC1`, the Activity was 64.1%.

Turning to `COC(=O)c1cc(NCc2ccccc2C(F)(F)F)ccc1N1CCOCC1`, the Activity was 83%.

For `O=C(O)c1cc(NCc2ccccc2F)ccc1N1CCOCC1`, the Activity is 29.9%.

As to `CN1CCN(c2ccc(NCc3cccc(Cl)c3)cc2)CC1`, the Activity is 19.5%.

For `COC(=O)c1cc(NCc2ccc(Br)cc2)ccc1N1CCOCC1`, the Activity was found to be 77.3%.

In the case of `CC(C)(C)OC(=O)N1CCN(c2ccc(NCc3cccc(Cl)c3)cc2)CC1`, the Activity turned out to be 36.8%.

With `CN1CCN(c2ccc(NCc3ccccc3F)cc2)CC1`, the Activity worked out at 42.7%.

Consider `Oc1ccccc1CNc1ccc(N2CCNCC2)cc1`, for which the Activity is 37.9%.

As for `FC(F)(F)c1ccc(CNc2ccc(N3CCOCC3)cc2)cc1`, the Activity is 27.6%.

Take `O=C(O)c1cc(NCc2cccc(O)c2)ccc1N1CCOCC1`: the Activity turned out to be 41.6%.

As for `COC(=O)c1cc(NCc2ccccc2C)ccc1N1CCOCC1`, the Activity is 58.4%.

As for `CC(C)(C)OC(=O)N1CCN(c2ccc(NCc3ccc(F)cc3)cc2)CC1`, the Activity came to 68.3%.

For the molecule `COc1ccccc1CNc1ccc(N2CCN(C)CC2)cc1`, the Activity worked out at 29.3%.

In the case of `c1ccc(CNc2ccc(N3CCCCC3)cc2)cc1`, the Activity was determined as 8.1%.

For the molecule `Cc1cc(C)c(CNc2ccc(N3CCOCC3)cc2)c(C)c1`, the Activity came out at 28.9%.

On to `COc1ccccc1CNc1ccc(N2CCCCC2)cc1`, for which the Activity came out at 9.9%.

As to `c1ccc(CNc2ccc(N3CCNCC3)cc2)cc1`, the Activity worked out at 26.3%.

Turning to `CN1CCN(c2ccc(NCc3ccccc3Br)cc2)CC1`, the Activity is 20%.

Turning to `COC(=O)c1cc(NCc2cccc(C)c2)ccc1N1CCOCC1`, the Activity stood at 54%.

With `COC(=O)c1cc(NCc2cccc(Oc3ccccc3)c2)ccc1N1CCOCC1`, the Activity worked out at 130%.

With `Oc1ccc(CNc2ccc(N3CCOCC3)cc2)cc1`, the Activity was 6.5%.

With `COC(=O)c1cc(NCc2cccc(F)c2)ccc1N1CCOCC1`, the Activity turned out to be 64.5%.

Turning to `O=C(O)c1cc(NCc2ccccc2)ccc1N1CCOCC1`, the Activity came to 32.5%.

As to `Brc1ccc(CNc2ccc(N3CCOCC3)cc2)cc1`, the Activity was determined as 18.1%.

In the case of `Cc1ccc(CNc2ccc(N3CCOCC3)c(C(=O)O)c2)cc1`, the Activity worked out at 33.4%.

For the molecule `Clc1ccc(CNc2ccc(N3CCCCC3)cc2)cc1`, the Activity was found to be 23%.

In the case of `CN1CCN(c2ccc(NCc3ccc(F)cc3)cc2)CC1`, the Activity turned out to be 23.9%.

Turning to `Cc1cc(C)c(CNc2ccc(N3CCOCC3)c(C(=O)O)c2)c(C)c1`, the Activity was 45.3%.

For `FC(F)(F)c1cccc(CNc2ccc(N3CCOCC3)cc2)c1`, the Activity was determined as 23.4%.

Take `Clc1cccc(CNc2ccc(N3CCNCC3)cc2)c1`: the Activity came out at 27.4%.

For the molecule `Fc1ccccc1CNc1ccc(N2CCNCC2)cc1`, the Activity was 24.1%.

As for `Oc1ccc(CNc2ccc(N3CCCCC3)cc2)cc1`, the Activity was 11%.

As to `O=C(O)c1cc(NCc2ccc(Cl)cc2)ccc1N1CCOCC1`, the Activity is 26.7%.

Take `Cc1ccccc1CNc1ccc(N2CCOCC2)c(C(=O)O)c1`: the Activity turned out to be 35%.

For `CN1CCN(c2ccc(NCc3ccc(O)cc3)cc2)CC1`, the Activity was determined as 9.4%.

Take `COc1ccccc1CNc1ccc(N2CCNCC2)cc1`: the Activity is 27.7%.

With `CN1CCN(c2ccc(NCc3ccccc3)cc2)CC1`, the Activity is 31.5%.

On to `c1ccc(Oc2cccc(CNc3ccc(N4CCOCC4)cc3)c2)cc1`, for which the Activity was found to be 39.3%.

Regarding `COc1cccc(CNc2ccc(N3CCOCC3)cc2)c1`, the Activity was 5.6%.

Regarding `Brc1ccccc1CNc1ccc(N2CCCCC2)cc1`, the Activity was 28%.

Consider `COC(=O)c1cc(NCc2ccc(OC)cc2)ccc1N1CCOCC1`, for which the Activity was determined as 58.9%.

Regarding `Brc1cccc(CNc2ccc(N3CCOCC3)cc2)c1`, the Activity came out at 11.6%.

As to `COC(=O)c1cc(NCc2ccc(C(F)(F)F)cc2)ccc1N1CCOCC1`, the Activity is 78.6%.

With `Oc1ccc(CNc2ccc(N3CCNCC3)cc2)cc1`, the Activity came out at 51.3%.

For `CC(C)(C)OC(=O)N1CCN(c2ccc(NCc3ccccc3Cl)cc2)CC1`, the Activity was found to be 43.2%.

For `Oc1cccc(CNc2ccc(N3CCOCC3)cc2)c1`, the Activity stood at 3.4%.

Consider `Cc1cccc(CNc2ccc(N3CCOCC3)cc2)c1`, for which the Activity stood at 8.3%.

With `O=C(O)c1cc(NCc2ccc(-c3ccccc3)cc2)ccc1N1CCOCC1`, the Activity was 40.1%.

In the case of `CN1CCN(c2ccc(NCc3ccccc3Cl)cc2)CC1`, the Activity was found to be 29.7%.

Turning to `O=C(O)c1cc(NCc2ccc(F)cc2)ccc1N1CCOCC1`, the Activity was determined as 30.3%.
